The values below come from publication PMC4767940 (PLoS ONE, 2016).

The subject of assay [1] is CD8+ T cells. The settings on record: cited from earlier work.
Assay [2] concerns the target H-2D^b on the surface of RMA-S cells (mouse (endogenous in RMA/S)). Nature of the assay: flow cytometry on cells. Background: A flow cytometer gives signals particle by particle.

Bounds are passed on as bounds.

Consider `O=CC[C@@H](O)[C@H](O)[C@H](O)CO` [2-deoxyglucose], for which the “formation of memory CD8+ T cell responses” value in assay [1] is on record as “augments the formation of memory CD8+ T cell responses”. For the molecule “GP33-41 peptide (wildtype GP33 epitope of LCMV)”, the half-life of the peptide on H-2D^b in assay [2] is > 5 h.
